Laboratory results: US20250345332A1, “APROCITENTAN FOR THE TREATMENT OF HYPERTENSION” (IDORSIA PHARMACEUTICALS LTD, priority 2022, published 2025)
Like-named read-outs stand apart in the source and are kept apart here.

Columns and labels:
[1] = system: patients with resistant hypertension; test: PRECISION phase 3 trial: trough unattended automated office blood pressure (uAOBP); format: in vivo, human; settings: for office SBP at 4 weeks, difference versus placebo (SE): part 1 (primary endpoint); for least square mean (SE) change in office SBP at 4 weeks: part 1, on standardized background therapy; for office DBP decrease compared with placebo: week 4, part 1
Procedure: (§1) A single, randomized study with three sequential treatment parts was designed. The study design addressed both the 4-week placebo-controlled efficacy of 12.5 and 25 mg aprocitentan (Part 1) and the durability of its effects in long-term active treatment with 25 mg aprocitentan for a further 32 weeks (Part 2) followed by a 12-week placebo-controlled withdrawal period with patients re-randomized to 25 mg or placebo (Part 3) (see for example Danaietash P et al; Identifying and treating resistant hypertension in PRECISION—a randomized long-term clinical trial with Aprocitentan. J Clin Hypertension 2022 (in press). Patients with uncontrolled BP (measured as unattended automated office BP) despite the use of three or more antihypertensive medications for at least 1 year were screened. They were switched to a single-tablet triple fixed combination antihypertensive therapy for at least 4 weeks before entering a single-blind placebo run-in period. The 4-week placebo run-in period further excluded placebo responders. The randomization period consisted of 3 sequential parts: • 1) a 4-week double-blind part with aprocitentan 12.5 mg, 25 mg, or placebo (1:1:1 ratio); • 2) a 32-week single-blind part with aprocitentan 25 mg; and • 3) a 12-week randomized withdrawal part with aprocitentan 25 mg or placebo (1:1 ratio).
The standardized byckground treatment (SBT) is a single-tablet triple fixed combination of a CCB (amlodipine), an ARB (valsartan), and a diuretic (hydrochlorothiazide); two dose strengths are available: 5/160/25 mg and 10/160/25 mg, respectively. The maximum tolerated dose strength is selected at the investigator's discretion during the treatment period of the study and must be kept stable for at least 1 week prior to randomization continuing through the end of the DB part and again during the DB-WD part. Patients who are treated with a β-blocker at screening will continue their treatment throughout the study.
Study treatment and SBT are to be taken every morning except on the morning of study visit days, where treatment is administered after the completion of the visit assessments and the measurement of BP.
Trough uAOBP is measured at each visit with the same automated oscillometric sphygmomanometer (Microlife® WatchBP Office), which records 5 sitting BP readings (one per minute, first value excluded from the average), with the patient resting undisturbed, alone (unattended) in a quiet place for 5 minutes.
(§2) • Part 1: Double-blind, randomized parallel-group and placebo-controlled and lasts for 4 weeks. Subjects received (1:1:1 ratio), 25 or 12.5 mg aprocitentan, or placebo. • Part 2: Single-blind and single-arm, lasts for 32 weeks. All subjects received aprocitentan 25 mg. • Part 3: Double-blind withdrawal. All subjects completing part 2 and entering part 3 are re-randomized (1:1 ratio) to either aprocitentan 25 mg or placebo.
The primary efficacy endpoint is the change from baseline to Week 4 of DB treatment in mean trough SiSBP measured as uAOBP, where baseline is defined as the last available measurement before the start of DB treatment. […]
(§3) Other secondary efficacy endpoints include • changes from baseline to Week 4 and from DB-WD baseline to Week 40 in mean trough sitting diastolic blood pressure (SiDBP) measured as uAOBP. • and changes in systolic/diastolic BP measured by ABPM, including changes from baseline to Week 4 of DB treatment in 24-h mean SBP and DBP, changes from baseline to Week 4 in daytime and night-time mean SBP and DBP, changes from DB-WD baseline (Week 36) to Week 40 in 24-h mean SBP and DBP, and changes from DB-WD baseline (Week 36) to Week 40 in daytime and night-time mean SBP and DBP.

[2] = system: patients with resistant hypertension; test: PRECISION phase 3 trial: ambulatory blood pressure monitoring (ABPM); format: in vivo, human; settings: for 24 h ambulatory DBP, placebo-corrected decrease / 24 h ambulatory SBP, placebo-corrected decrease: end of part 1 (week 4)
Procedure: as §1
ABPM is performed over a 24-hour period with the Mobil-O-Graph NG device at baseline, and Weeks 4, 36, and 40. Systolic BP and diastolic BP are measured every 20 minutes from 06:00-23:00 and every 30 minutes from 23:00-06:00. Monitoring is initiated between 06:00 and 11:00.
as §2, §3

[3] = system: patients with resistant hypertension; test: PRECISION phase 3 trial: safety assessments; format: in vivo, human; settings: for tolerability: 12.5 mg and 25 mg, up to 48 weeks; for treatment-emergent adverse events (TEAEs), patients: 4-week double-blind period, placebo 19.4%; for edema/fluid retention, patients: 4-week part 1, placebo 2.1%; for discontinuation from study treatment due to an adverse event: first 4 weeks double-blind, placebo 0.8%; for estimated plasma volume increase: placebo 0.51%
Procedure: as §1, §2
Safety assessments include (treatment emergent) adverse events (TEAEs) including TEAEs leading to premature discontinuation of study treatment; adverse events of special interest (AESIs): hepatic disorders, anemia (or hemodilution), edema/fluid retention, and decompensation/aggravation of heart failure; treatment-emergent major adverse cardiovascular events (MACEs)/MACE-plus defined as cardiovascular death, non-fatal myocardial infarction (MI), or non-fatal stroke, or hear filure leading to hospitalization confirmed by the Central Adjudication Committee (CAC); as well as vital signs, body weight, clinical laboratory assessments, and 12-lead electrocardiograms.

[4] = system: subjects having essential hypertension; settings: cited from earlier work
[5] = system: rat models of hypertension; settings: cited from earlier work
[6] = in comparison to corresponding alkylated derivatives; cited from earlier work
[7] = subjects with CKD stage 3-4, baseline to Week 4
[8] = Black or African Americans, baseline to Week 4
[9] = part 3, after 4 weeks of withdrawal (week 40), aprocitentan 25 mg

Compound: NS(=O)(=O)Nc1ncnc(OCCOc2ncc(Br)cn2)c1-c1ccc(Br)cc1 [aprocitentan, {5-(4-bromo-phenyl)-6-[2-(5-bromo-pyrimidin-2-yloxy)-ethoxy]-pyrimidin-4-yl}-sulfamide]
- office SBP at 4 weeks, difference versus placebo (SE) ([1]; aprocitentan 12.5 mg): statistically significant and clinically meaningful reduction
- least square mean (SE) change in office SBP at 4 weeks ([1]; aprocitentan 12.5 mg): −15.3 (0.9) mm Hg
- office DBP decrease compared with placebo ([1]; aprocitentan 12.5 mg): −3.9 mm Hg
- office blood pressure reduction from baseline during part 2 ([1]; aprocitentan 25 mg, 32-week single-blind part 2, patients previously on aprocitentan): maintained
- office SBP at 4 weeks, difference versus placebo (SE) ([1]; aprocitentan 25 mg): statistically significant and clinically meaningful reduction
- least square mean (SE) change in office SBP at 4 weeks ([1]; aprocitentan 25 mg): −15.2 (0.9) mm Hg
- office DBP decrease compared with placebo ([1]; aprocitentan 25 mg): −4.5 mm Hg
- office DBP increase with placebo compared with aprocitentan ([1]; part 3, after 4 weeks of withdrawal, aprocitentan 25 mg): 5.2 mm Hg
- difference 25 mg versus 12.5 mg in LS mean reduction, primary endpoint SiSBP [1, 7]: up to −5.88 mmHg
- further decrease in SiSBP with 25 mg compared with 12.5 mg [1, 7]: 44%
- difference 25 mg versus 12.5 mg in LS mean BP reduction with ABPM (night-time SBP) [2, 8]: up to −5.90 mmHg
- further decrease in night-time SBP with 25 mg compared to 12.5 mg [2, 8]: > 100%
- 24 h ambulatory DBP, placebo-corrected decrease ([2]; aprocitentan 12.5 mg): −4.3 mm Hg
- 24 h ambulatory SBP, placebo-corrected decrease ([2]; aprocitentan 12.5 mg): −4.2 mm Hg
- placebo-corrected SBP lowering effect during the daytime ([2]; aprocitentan 12.5 mg, week 4): −3.8 mm Hg
- placebo-corrected SBP lowering effect during the night time ([2]; aprocitentan 12.5 mg, week 4): −5.1 mm Hg
- 24 h ambulatory DBP, placebo-corrected decrease ([2]; aprocitentan 25 mg): −5.8 mm Hg
- 24 h ambulatory SBP, placebo-corrected decrease ([2]; aprocitentan 25 mg): −5.9 mm Hg
- placebo-corrected SBP lowering effect during the daytime ([2]; aprocitentan 25 mg, week 4): −5.3 mm Hg
- 24 h ambulatory DBP increase with placebo compared with aprocitentan [2, 9]: 6.8 mm Hg
- 24 h ambulatory SBP increase with placebo compared with aprocitentan [2, 9]: 6.5 mm Hg
- tolerability [3]: generally well tolerated
- tolerability ([3]; listed as Aprocitentan): generally well tolerated
- treatment-emergent adverse events (TEAEs), patients ([3]; aprocitentan 12.5 mg): 27.6%
- edema/fluid retention, patients ([3]; aprocitentan 12.5 mg): 9.1%
- discontinuation from study treatment due to an adverse event ([3]; aprocitentan 12.5 mg): 2.5%
- estimated plasma volume increase ([3]; aprocitentan 12.5 mg, part 1): 10.5%
- haemoglobin concentration change ([3]; aprocitentan 12.5 mg, part 1, placebo −0.4): -8.0 g/L
- treatment-emergent adverse events (TEAEs), patients ([3]; aprocitentan 25 mg): 36.7%
- edema/fluid retention, patients ([3]; aprocitentan 25 mg): 18.4%
- oedema or fluid retention, patients ([3]; aprocitentan 25 mg, 12-week part 3, placebo 1.3%): 2.6%
- oedema or fluid retention, patients ([3]; aprocitentan 25 mg, 32-week part 2): 18.2%
- discontinuation from study treatment due to an adverse event ([3]; aprocitentan 25 mg): 2.0%
- admission to hospital for heart failure, patients ([3]; aprocitentan 25 mg, part 1 (two of 245)): 0.8%
- patients who discontinued due to oedema or fluid retention ([3]; aprocitentan 25 mg, part 1, of 245 patients): one
- estimated plasma volume increase ([3]; aprocitentan 25 mg, part 1): 11.2%
- admission to hospital for heart failure, patients ([3]; aprocitentan 25 mg, part 2 (six of 704)): 0.9%
- patients who discontinued due to oedema or fluid retention ([3]; aprocitentan 25 mg, part 2, of 704 patients): five
- admission to hospital for heart failure, patients ([3]; aprocitentan 25 mg, part 3 (two of 310), placebo 0.3%): 0.6%
- patients who discontinued due to oedema or fluid retention ([3]; aprocitentan 25 mg, part 3, of 310 patients): one
- patients who discontinued treatment due to edema/fluid retention ([3]; aprocitentan 25 mg, parts 1-3, <1%): seven
- bodyweight ([3]; both aprocitentan doses, part 1, decrease with placebo): moderate increase
- serious edema/fluid retention adverse events ([3]; both on aprocitentan 25 mg, <1%): Two
- edema/fluid retention events mild to moderate in intensity ([3]; entire study duration): > 95%
- patients who developed edema/fluid retention at one time point ([3]; entire study duration): Approximately 30%
- hepatotoxicity ([3]; in vivo): No signs
- NT-proBNP and MR-proANP ([3]; part 1, stabilisation in part 2, reversal in part 3): Slight increases
- eGFR ([3]; part 1 versus placebo): decreased slightly
- decrease of hemoglobin value from baseline to week 36 ([3]; preliminary data, subjects with SGLT-2 inhibitor plus standardized antihypertensive background therapy, small sample size): smaller decrease
- tolerability ([4]; across all four doses (5, 10, 25, 50 mg)): well tolerated
- cases of increased liver enzymes above three times the upper limit of the normal range ([4]; aprocitentan 5 mg group): one
- cases of peripheral edema ([4]; aprocitentan 25 mg group): two
- cases of peripheral edema ([4]; aprocitentan 50 mg group): two
- mean body weight change from baseline ([4]; aprocitentan 5 and (10) mg groups): remained unchanged
- mean body weight increase from baseline ([4]; aprocitentan 25 and 50 mg groups): 0.4 kg
- pharmacological effect in combination with ACE inhibitors such as enalapril ([5]; in certain models): synergistic
- pharmacological effect in combination with angiotensin receptor blockers such as valsartan ([5]; rat, in vivo): synergistic
- pharmacological effect in combination with calcium channel blockers such as amlodipine ([5]; rat, in vivo): additive
- clearance in vivo [6]: much shorter
- half-life in vivo [6]: much longer
